{"source": "patent US6214992A", "about": "(Hoechst Aktiengesellschaft, priority 1996, dated 2001)", "data": [{"tested_on": "rat", "assay": "not given", "settings": "comparable experimental conditions, J. Cereb. Blood Flow Metab. 1994, 14/1: 166-173; cited from earlier work", "values": [{"smiles": "Cn1c(=O)c2[nH]cnc2n(C)c1=O", "note": "[theophylline, 1,3-dimethylxanthine]", "inhibition of ischemic nerve cell damage": "inhibits ischemic nerve cell damage neither"}]}, {"tested_on": "Mongolian gerbils", "assay": "not given", "settings": "gerbil, comparable experimental conditions; J. Cereb. Blood Flow Metab. 1987, 7/1: 74-81; cited from earlier work", "values": [{"smiles": "Cn1c(=O)c2[nH]cnc2n(C)c1=O", "note": "[theophylline, 1,3-dimethylxanthine]", "inhibition of ischemic nerve cell damage": "inhibits ischemic nerve cell damage neither"}]}, {"tested_on": "C57BL/6 mice", "assay": "endotoxin (LPS)-induced lethal shock, decrease in mortality", "format": "in vivo", "settings": "Mus musculus, ip, 48 h, read-out: Inhibition of mortality", "experimental": "(§1) For the testing of preparations for antishock action, various experimental animal models have been developed.\n(§2) To carry out the experiments, a mixture of 10 ng of LPS from Salmonella abortus equi. and 7.5 mg of galactosamine in 0.2 ml of phosphate-buffered,physiological saline solution was administered to each animal by intravenous injection, which as a rule led to death within 6 to 9 hours. The test preparations were administered intraperitoneally one hour before LPS provocation at a dose of 100 mg/kg. The animals of the control group (n=10) instead of this received pure 0.9% saline solution as placebo. To assess the action of the preparation, the number of surviving animals was determined in the treated group (n=10) 48 hours after LPS administration and from this the percentage inhibition of mortality was determined with respect to the mortality in the control group.", "units": {"inhibition in vivo at 100 mg/kg": "%"}, "values": [{"smiles": "CCCn1c(=O)n(CCOC)c(=O)c2[nH]cnc21", "note": "[Compound 8]", "inhibition in vivo at 100 mg/kg": 30}, {"smiles": "CCCn1c(=O)n(CCOCC)c(=O)c2[nH]cnc21", "note": "[Compound 23]", "inhibition in vivo at 100 mg/kg": 40}]}, {"tested_on": "C57BL/6 mice", "assay": "endotoxin (LPS)-induced lethal shock, decrease in mortality", "format": "in vivo", "settings": "Mus musculus, ip; 100 mg/kg intraperitoneally one hour before LPS/galactosamine; survivors 48 hours after LPS; versus placebo control; read-out: Inhibition of mortality", "experimental": "as §1, §2", "units": {"inhibition in vivo at 100 mg/kg": "%"}, "values": [{"smiles": "COCn1c(=O)c2[nH]cnc2n(C)c1=O", "note": "[Compound 1, 1-Methoxymethyl-3-methylxanthine]", "inhibition in vivo at 100 mg/kg": 80}, {"smiles": "CCn1c(=O)n(COC)c(=O)c2[nH]cnc21", "note": "[Compound 2]", "inhibition in vivo at 100 mg/kg": 30}, {"smiles": "CCCCn1c(=O)n(COC)c(=O)c2[nH]cnc21", "note": "[Compound 4]", "inhibition in vivo at 100 mg/kg": 30}, {"smiles": "CCOCn1c(=O)c2[nH]cnc2n(C)c1=O", "note": "[Compound 16]", "inhibition in vivo at 100 mg/kg": 100}, {"smiles": "CCOCn1c(=O)c2[nH]cnc2n(CC)c1=O", "note": "[Compound 17]", "inhibition in vivo at 100 mg/kg": 100}, {"smiles": "CCOCCn1c(=O)c2[nH]cnc2n(C)c1=O", "note": "[Compound 21]", "inhibition in vivo at 100 mg/kg": 40}, {"smiles": "CCCOCn1c(=O)c2[nH]cnc2n(C)c1=O", "note": "[Compound 26]", "inhibition in vivo at 100 mg/kg": 100}, {"smiles": "CCCOCn1c(=O)c2[nH]cnc2n(CC)c1=O", "note": "[Compound 27, 3-Ethyl-1-propoxymethylxanthine]", "inhibition in vivo at 100 mg/kg": 100}, {"smiles": "CCCOCn1c(=O)c2[nH]cnc2n(C(C)C)c1=O", "note": "[Compound 29]", "inhibition in vivo at 100 mg/kg": 50}, {"smiles": "CCCOCn1c(=O)c2[nH]cnc2n(CC(C)C)c1=O", "note": "[Compound 31, 3-Isobutyl-1-propoxymethylxanthine]", "inhibition in vivo at 100 mg/kg": 30}, {"smiles": "CCCOCn1c(=O)c2[nH]cnc2n(-c2ccccc2)c1=O", "note": "[Compound 32, 3-Phenyl-1-propoxymethylxanthine]", "inhibition in vivo at 100 mg/kg": 90}, {"smiles": "CCCOCn1c(=O)c2[nH]cnc2n(CC2CC2)c1=O", "note": "[Compound 34, 3-Cyclopropylmethyl-1-propoxymethylxanthine]", "inhibition in vivo at 100 mg/kg": 30}, {"smiles": "CCCOCCn1c(=O)c2[nH]cnc2n(C)c1=O", "note": "[Compound 35]", "inhibition in vivo at 100 mg/kg": 30}, {"smiles": "CCCOCCn1c(=O)c2[nH]cnc2n(CCC)c1=O", "note": "[Compound 37, 1-(2-Propoxyethyl)-3-propylxanthine]", "inhibition in vivo at 100 mg/kg": 80}, {"smiles": "CCCOCCn1c(=O)c2[nH]cnc2n(C2CC2)c1=O", "note": "[Compound 39]", "inhibition in vivo at 100 mg/kg": 30}, {"smiles": "CCCCOCn1c(=O)c2[nH]cnc2n(C)c1=O", "note": "[Compound 40]", "inhibition in vivo at 100 mg/kg": 40}, {"smiles": "CCCCOCn1c(=O)c2[nH]cnc2n(CC)c1=O", "note": "[Compound 41]", "inhibition in vivo at 100 mg/kg": 40}, {"smiles": "CCCCOCCn1c(=O)c2[nH]cnc2n(CC)c1=O", "note": "[Compound 44]", "inhibition in vivo at 100 mg/kg": 30}, {"smiles": "CC(C)COCn1c(=O)c2[nH]cnc2n(C)c1=O", "note": "[Compound 48, 1-Isobutoxymethyl-3-methylxanthine]", "inhibition in vivo at 100 mg/kg": 40}, {"smiles": "CC(C)COCn1c(=O)c2[nH]cnc2n(C2CC2)c1=O", "note": "[Compound 50]", "inhibition in vivo at 100 mg/kg": 40}, {"smiles": "CCC(C)OCn1c(=O)c2[nH]cnc2n(CC)c1=O", "note": "(stereo not drawn) [Compound 52, 1-sec-Butoxymethyl-3-ethylxanthine]", "inhibition in vivo at 100 mg/kg": 30}, {"smiles": "CCn1c(=O)n(COCCOC)c(=O)c2[nH]cnc21", "note": "[Compound 54]", "inhibition in vivo at 100 mg/kg": 30}]}, {"tested_on": "Mongolian gerbils", "assay": "transient global ischemia, CA1 hippocampus nerve cell damage", "format": "in vivo, Mongolian gerbil", "settings": "Meriones unguiculatus, ip, 168 h; Dose 5 mg/kg intraperitoneally 30 minutes after 3-minute ischemia; histopathological score after 7 days versus untreated control; read-out: Inhibition of the neuronal CA1 hippocampus damage", "experimental": "(§3) To carry out the experiment, which took place according to the guidelines of the German Animal Protection Act, 30 male Mongolian gerbils having a body weight of between 60 and 70 g were randomly divided into two groups each containing 15 animals. The respective test substance was administered to the animals of the first group 30 minutes after the ischemia period by intraperitoneal injection, while the animals of the second group, which served as an untreated control group, only received the same volume of the vehicle concerned. To produce the temporary forebrain ischemia, the animals were fixed in the supine position to a heated operated table, and both common carotid arteries were carefully exposed and closed for 3 minutes by means of microaneurysm clips. 7 days after the 3-minute ischemia period, the animals were decapitated under halothane anesthesia, the brains were rapidly and carefully removed, first fixed by immersion in Carnoy's solution (ethanol/chloroform/acetic acid=6/3/1) and then embedded in paraffin. Subsequently 4 to 6 μm thick coronal sections through the hippocampus were prepared approximately at the height of the bregma and these were stained with hematoxylin and eosin. After this, the extent of eosinophilic necrosis of the pyramidal cells in the CA1 region of the hippocampus was determined by light microscopy in the course of a blind experiment by means of a semiquantitative histopathological score (0=none; 1=slight; 2=medium severe; 3=severe and 4=complete necroses). The assessment variable used for the neuroprotective action was the percentage change in the mean histopathological score of the preparation group compared to that of the untreated control group.", "units": {"inhibition in vivo at 5 mg/kg": "%"}, "values": [{"smiles": "CCCOCn1c(=O)c2[nH]cnc2n(CC)c1=O", "note": "[Compound 27, 3-Ethyl-1-propoxymethylxanthine]", "inhibition in vivo at 5 mg/kg": 40}]}, {"tested_on": "Mongolian gerbils", "assay": "transient global ischemia, CA1 hippocampus nerve cell damage", "format": "in vivo, Mongolian gerbil", "settings": "Meriones unguiculatus, ip, 168 h; Dose 10 mg/kg intraperitoneally 30 minutes after 3-minute ischemia; histopathological score after 7 days versus untreated control; read-out: Inhibition of the neuronal CA1 hippocampus damage", "experimental": "as §3", "units": {"inhibition in vivo at 10 mg/kg": "%"}, "values": [{"smiles": "COCn1c(=O)c2[nH]cnc2n(C2CC2)c1=O", "note": "[Compound 5]", "inhibition in vivo at 10 mg/kg": 20}, {"smiles": "COCCn1c(=O)c2[nH]cnc2n(C)c1=O", "note": "[Compound 6]", "inhibition in vivo at 10 mg/kg": 20}, {"smiles": "CCn1c(=O)n(CCOC)c(=O)c2[nH]cnc21", "note": "[Compound 7]", "inhibition in vivo at 10 mg/kg": 33}, {"smiles": "CCOCn1c(=O)c2[nH]cnc2n(CC)c1=O", "note": "[Compound 17]", "inhibition in vivo at 10 mg/kg": 66}, {"smiles": "CCCCn1c(=O)n(CCOCC)c(=O)c2[nH]cnc21", "note": "[Compound 24]", "inhibition in vivo at 10 mg/kg": 30}, {"smiles": "CCOCCn1c(=O)c2[nH]cnc2n(C2CC2)c1=O", "note": "[Compound 25]", "inhibition in vivo at 10 mg/kg": 24}, {"smiles": "CCCOCn1c(=O)c2[nH]cnc2n(CC)c1=O", "note": "[Compound 27, 3-Ethyl-1-propoxymethylxanthine]", "inhibition in vivo at 10 mg/kg": 67}, {"smiles": "CCCOCn1c(=O)c2[nH]cnc2n(CCC)c1=O", "note": "[Compound 28]", "inhibition in vivo at 10 mg/kg": 30}, {"smiles": "CCCCn1c(=O)n(COCCC)c(=O)c2[nH]cnc21", "note": "[Compound 30]", "inhibition in vivo at 10 mg/kg": 24}, {"smiles": "CCCOCCn1c(=O)c2[nH]cnc2n(CC)c1=O", "note": "[Compound 36]", "inhibition in vivo at 10 mg/kg": 23}, {"smiles": "CCCOCCn1c(=O)c2[nH]cnc2n(C2CC2)c1=O", "note": "[Compound 39]", "inhibition in vivo at 10 mg/kg": 36}, {"smiles": "CCCCOCCn1c(=O)c2[nH]cnc2n(CC)c1=O", "note": "[Compound 44]", "inhibition in vivo at 10 mg/kg": 64}, {"smiles": "CCn1c(=O)n(COCCOC)c(=O)c2[nH]cnc21", "note": "[Compound 54]", "inhibition in vivo at 10 mg/kg": 36}, {"smiles": "CCn1c(=O)n(COc2ccccc2)c(=O)c2[nH]cnc21", "note": "[Compound 58]", "inhibition in vivo at 10 mg/kg": 20}, {"smiles": "CCn1c(=O)n(CCOc2ccccc2)c(=O)c2[nH]cnc21", "note": "[Compound 61]", "inhibition in vivo at 10 mg/kg": 23}, {"smiles": "CCCCn1c(=O)n(CCOc2ccccc2)c(=O)c2[nH]cnc21", "note": "[Compound 63]", "inhibition in vivo at 10 mg/kg": 27}, {"smiles": "CCn1c(=O)n(COc2ccc(Cl)cc2)c(=O)c2[nH]cnc21", "note": "[Compound 66]", "inhibition in vivo at 10 mg/kg": 23}, {"smiles": "CCn1c(=O)n(CCOC)c(=O)c2c1ncn2Cc1ccccc1", "note": "[Compound 77]", "inhibition in vivo at 10 mg/kg": 33}, {"smiles": "CCn1c(=O)n(CCCOC)c(=O)c2c1ncn2Cc1ccccc1", "note": "[Compound 82]", "inhibition in vivo at 10 mg/kg": 30}, {"smiles": "CCCOCn1c(=O)c2c(ncn2Cc2ccccc2)n(C2CC2)c1=O", "note": "[Compound 103]", "inhibition in vivo at 10 mg/kg": 32}, {"smiles": "CCCCOCCn1c(=O)c2c(ncn2Cc2ccccc2)n(CC)c1=O", "note": "[Compound 114]", "inhibition in vivo at 10 mg/kg": 27}]}]}
